Type in all cases: cell-based
For assay [1], the system named is matured adipocytes (3T3-L1 cells). Nature of the assay: Enhancing action for glucose uptake (2-deoxyglucose uptake) into matured adipocytes. Conditions: positive control, insulin final concentration 1 μg/mL.
Assay [2] relates to Preadipocyte cell line 3T3-L1. Description: Induction of adipocyte differentiation, amount of biosynthesized triglyceride. Conditions: positive control, 4 μl of aqueous solution containing 5 mg/mL insulin. The method, then:
The induction of an adipocyte differentiation was carried out by partially modifying the above-mentioned method of Rubin C. S. et al. Preadipocyte cell line 3T3-L1 (ATCC CCL-92.1) was suspended in a 10% bovine fetal serum (manufactured by GIBCO)-containing Dulbecco's modified Eagle's medium (manufactured by Sigma, D6046) containing 200 μM ascorbic acid (hereinafter referred to as A-D-MEM) so as to have a concentration of 4×10^3 cells/mL, and the suspension was put in each well of a 12-well microtiter plate in an amount of 2 mL per well. The cells were cultured at 37° C. for 7 days in the presence of 5% carbon dioxide gas. The medium was exchanged with the same medium on the second day and the fourth day. […] Here, there were set a group with addition of 4 μl of an aqueous solution containing 5 mg/mL insulin (manufactured by TAKARA BIO INC.) as a positive control, and a group with addition of water as a negative control. […] The amount of biosynthesized triglyceride in the adipocytes was determined as an index of induction of differentiation into matured adipocytes, and as evaluation of insulin-mimetic action. […] The precipitate was dissolved in 100 μl of isopropanol, and thereafter the amount of triglyceride contained in 10 μl of the resulting solution was determined with Triglyceride G-Test (manufactured by Wako Pure Chemical Industries, Ltd., code 276-69801). […]

Assay [3] concerns matured adipocytes (3T3-L1 cells). Nature of the assay: Glucose uptake by insulin stimulation into adipocytes induced to be differentiated by the sample. Conditions: adipocytes differentiated by insulin (4 μl of 5 mg/mL); insulin stimulation 1 μg/mL; FIG. 15. The text has this:
Adipocytes which were induced to be differentiated by the ethanol extract fraction from Angelica keiskei koidz. prepared in Example 14 were obtained, and thereafter it was confirmed whether the glucose uptake into the cells was enhanced by insulin stimulation.
Specifically, as a sample, there was set a group with addition of a dimethyl sulfoxide solution of the ethanol extract fraction from root portions of Angelica keiskei koidz. to have a final concentration of 0.05%. A group with addition of 4 μl of an aqueous solution containing 5 mg/mL insulin (manufactured by TAKARA BIO INC.) was set as a positive control. […]
Next, the amount of 2-deoxyglucose uptake into the resulting matured adipocytes during the insulin stimulation in the adipocytes was determined in the same manner as in the method described in Example 5.
Specifically, a group without addition of insulin or a group with addition of insulin so as to have a final concentration of 1 μg/mL was set in each of the matured adipocytes. Thereafter, the amount of 2-deoxy-[1,2-^3H(N)]-glucose uptake into the cells was determined in the same manner.

In another assay the test system is glucose transporter. Nature of the assay: Inhibition by cytochalasin B of 2-deoxyglucose uptake into matured adipocytes. Conditions: FIG. 13. The method, then:
The influence of cytochalasin B on 2-deoxyglucose uptake into matured adipocytes during the stimulation of the sample into the cells was tested in the same manner as in the method described in Example 5 on whether the enhancing action for glucose uptake of the ethanol extract fraction from root portions of Angelica keiskei koidz. shown in Example 16 is inhibited by cytochalasin B, which is an inhibitor of glucose transporter.
Specifically, as a sample, a group with addition of a dimethyl sulfoxide solution of the ethanol extract fraction from root portions of Angelica keiskei koidz. so as to have a final concentration of 0.1% was set. Here, there were set a group without addition of the sample as a negative control, and a group with addition of insulin so as to have a final concentration of 1 μg/mL as a positive control. Furthermore, a group with addition of cytochalasin B (manufactured by nacalai tesque, 10435-81) so as to have a final concentration of 40 μM was set concurrently to the timing of the setting of the group with addition of insulin in each group. Thereafter, the amount of 2-deoxy-[1,2-^3H(N)]-glucose uptake into the cells was determined in the same manner.

In assay [4] the test system is matured adipocytes (3T3-L1 cells). Nature of the assay: Synergistic enhancing action of glucose uptake with low concentration-insulin in matured adipocytes. Conditions: insulin alone, final concentration 0.001 μg/mL; FIG. 14. The method, then: As evaluation of the synergistic enhancing action of glucose uptake by the ethanol extract fraction from root portions of Angelica keiskei koidz. prepared in Example 14 and a low concentration-insulin, the amount of 2-deoxyglucose uptake into matured adipocytes during the stimulation of the sample in the adipocytes was determined partly in the same manner as in the method described in Example 5.
The matured adipocytes were prepared in the same manner as in the method described in item (1) of Example 5.
After the termination of the culture, the medium was removed, and the cells were washed twice with 0.1% (w/v) bovine serum albumin (manufactured by Sigma, A8022)-containing Dulbecco's modified Eagle's medium. Thereafter, 1 mL of the same medium containing a dimethyl sulfoxide solution of the ethanol extract fraction from root portions of Angelica keiskei koidz. having a final concentration of 0.02% was added thereto. The cells were cultured overnight at 37° C. in the presence of 5% carbon dioxide gas. A group without containing the ethanol extract fraction from root portions of Angelica keiskei koidz. was set as a negative control. […] Thereafter, the amount of 2-deoxy-[1,2-^3H(N)]-glucose uptake into the cells was determined in the same manner as in the method described in item (2) of Example 5.

Entries after “also recorded” stand apart in the source; their conditions may differ.

Take insulin: in assay [1], the “enhancement of 2-deoxy[1,2-3H(N)]-glucose uptake” value was “enhancement of 2-deoxy[1,2-^3H(N)]-glucose uptake was found; also recorded: enhancement of 2-deoxy-[1,2-^3H(N)]-glucose uptake was found”. In addition, the “induction of triglyceride biosynthesis (adipocyte differentiation)” value in assay [2] is reported as “induction of triglyceride biosynthesis could be confirmed”. Moreover, the “enhancement of 2-deoxy[1,2-3H(N)]-glucose uptake by insulin stimulation” value in assay [3] is “enhancement of 2-deoxy[1,2-^3H(N)]-glucose uptake was found by insulin stimulation”. Also, in the assay on glucose transporter (insulin 1 μg/mL plus cytochalasin B 40 μM), the “2-deoxy-[1,2-3H(N)]-glucose uptake with concurrent cytochalasin B” value is recorded as “almost completely inhibited”. Also, the “enhancement of 2-deoxy-[1,2-3H(N)]-glucose uptake” value in assay [4] is “enhancement of 2-deoxy-[1,2-^3H(N)]-glucose uptake was found”.

As for `C=C1[C@@H](C)[C@H]2[C@H](Cc3ccccc3)NC(=O)[C@]23OC(=O)/C=C/[C@H](O)CCC[C@@H](C)C/C=C/[C@H]3[C@@H]1O` [cytochalasin B], the “inhibition of 2-deoxy-[1,2-3H(N)]-glucose uptake” value in the assay on glucose transporter (cytochalasin B final concentration 40 μM added concurrently with each group) is listed as “almost completely inhibited”.

For the origin of these results see patent US20080044498A1, “Therapeutic or prophylactic agent, and method of treating or preventing a disease” (priority 2002, published 2008).
